Test results taken from US11136345B2, “Large scale preparation of pseudo-trisaccharide aminoglycosides and of intermediates thereof” (Eloxx Pharmaceuticals Ltd., priority 2017, dated 2021).

System: Rett Syndrome mutation R270X
Assay: Read-through activity in cell-free assay (firefly/renilla luciferase reporter, in vitro transcription/translation)
Assay type: biochemical, rabbit
Conditions: cell-free dose-response, concentration range 0-12 μM; firefly/renilla expression ratio normalized to WT and non-treated control (FIGS. 6A-B)
Procedure: The plasmids were transcribed in vitro and translated using rabbit reticulocytes (TNT mix) and then tested for the expression levels of the firefly and renilla luciferases. WT plasmids expressed both firefly and renilla luciferases while mutant plasmids expressed only the renilla luciferase due to the stop codon found in the inserted sequence. The read-through assays were conducted for the tested compounds and the controls by adding the compounds to the in vitro transcription/translation reaction mixture. In case the compounds exerted suppression of the premature nonsense/stop codon mutation, the firefly luciferase was expressed and a fold-change in its expression was observed.
Read-through activity of Rett Syndrome mutation R270X was tested using ELX-02 that was manufactured in Example 1 and 2, and the mutation suppression was calculated based on firefly/renilla expression ratio values, and normalized with respect to the expression level of the WT and the control sample (no tested compound).
FIGS. 6A-B present the results of Rett Syndrome mutation R270X nonsense mutation suppression dose-response cell-free assays conducted for ELX-02 according to embodiments of the present invention, at a concentration rage of 0-12 μM.

Compound: C[C@H](N)[C@H]1O[C@@H](OC2C(O)[C@H](N)CC(N)[C@H]2O[C@H]2OC([C@@H](C)O)[C@@H](O)C(O)C2N)C(O)C1O (stereo partly shown) [ELX-02]
- read-through of the Rett Syndrome mutation, R270X: dose-dependent increase
